Tested on: rabbit aorta rings contracted with phenylephrine
Test: Vasorelaxant effect in vitro
Design: species or system Rabbits
Conditions: Oryctolagus cuniculus; isolated rabbit aorta rings, phenylephrine-induced contraction, concentration reducing height of contraction by 50%
Method: Vasorelaxant Effect in Vitro
Rabbits are stunned by a blow to the back of the neck and are exsanguinated. The aorta is removed, freed of adherent tissue, divided into rings 1.5 mm wide and put singly under tension in 5 ml organ baths containing carbogen-gassed Krebs-Henseleit solution at 37° C. with the following composition (mM): NaCl: 119; KCl: 4.8; CaCl2×2H2O: 1; MgSO4×7H2O: 1.4; KH2PO4: 1.2; NaHCO3: 25; glucose: 10. The force of contraction is detected with Statham UC2 cells, amplified and digitized via A/D converters (DAS-1802 HC, Keithley Instruments Munich) and recorded in parallel on chart recorders. A contraction is generated by adding phenylephrine to the bath cumulatively in increasing concentration. After several control cycles, the substance to be investigated is investigated in each further run in increasing dosage in each case, and the height of the contraction is compared with the height of the contraction reached in the last preceding run. The concentration necessary to reduce the height of the control value by 50% (IC50) is calculated from this. The standard application volume is 5 μl, and the DMSO content in the bath solution corresponds to 0.1%.

Nc1nc(-c2nn(Cc3ccccc3F)c3ncccc23)ncc1N1C2CCCC1COC2 [Example 2, 2-[1-(2-Fluorobenzyl)-1H-pyrazolo[3,4-b]pyridin-3-yl]-5-(3-oxa-9-azabicyclo[3.3.1]non-9-yl)-4-pyrimidinylamine]
IC50: 300 nM

— patent US20040235863A1, “Morpholine-bridged pyrazolopyridine derivatives” (priority 2001, published 2004)
